Patent publication US5508401A, “Substituted dibenzo[a,d]cycloheptene NMDA antagonists” (priority 1991, dated 1996)
pIC50: −log10 of the molar value.

Columns and labels:
[1] = target: NMDA-associated ion channel; experiment: Displacement of [3H]-TCP from its binding site in rat frontal cortex homogenates; settings: functional binding assay without added spermidine
From the text: Ability to Displace [^3 H]-TCP from the NMDA Ion Channel
*Functional binding assay without added spermidine.

NMDA [2] = experiment: Inhibition of NMDA-induced lethality in mice; format: in vivo, male Swiss-albino mice (CD-1 strain); settings: for ED50 Inhibition of NMDA-Induced Lethality / Percent of animals which survived at the dose indicated / Efficacy Ratio (ED50/TD50): ip, mice; for ED50 Inhibition of NMDA-Induced Lethality: dose required to produce 50% survival rate, NMDA 195 mg/kg i.p. 30 min after compound; for Percent of animals which survived at the dose indicated: NMDA 195 mg/kg i.p.; for Efficacy Ratio (ED50/TD50): NMDA-induced lethality vs traction reflex deficit (ataxia)
Procedure: The mice were pretreated with the representative test compounds followed thirty minutes later with NMDA (195 mg/kg, i.p., the ED90 dose for generalized myoclonus). The mice were then observed for 30 minutes, noting the latency of onset of generalized myoclonus (uncontrollable hind leg scratching or limbs and/or torso muscle jerking with loss of […] reflex) and death. From the latter, the ED50 for survival is determined. In this standard experimental test procedure, the specific compounds tested and their activity, which representatively establish the activity for all the compounds herein, are presented in Table I as follows:
(§1) NMDA-Induced Lethality and Traction Reflex Deficit (Ataxia)
Of Lethality Reflex Deficit
*As measured in mice. Defined as the dose required to produce 50% surviva
#Percent of animals which survived at the dose indicated.

NMDA [3] = settings: in words; cited from earlier work
cerebral ischemia = settings: in vivo; cited from earlier work
[4] = tested on: high-affinity PCP binding site in the NMDA-associated ion channel; settings: cited from earlier work
[5] = in vivo; cited from earlier work
[6] = cited from earlier work
NMDA-induced responses = settings: cited from earlier work
[7] = Traction reflex deficit (ataxia) in mice; settings: mouse, in vivo, ip, dose which produced the deficit in 50% of animals tested
From the text: In fact, the separation between a compound's NMDA-antagonist activity and ataxic activity (often expressed as an "efficacy ratio" of the ED50 's of these two activities) has been extensively used to evaluate its therapeutic usefulness versus its liabilities. In our studies, PCP is approximately equipotent in its abilities to antagonize NMDA-induced lethality in mice and cause ataxia as measured by the traction reflex deficit model, giving an efficacy ratio (ED50 /TD50) of approximately 1.4 (Table 1, infra).
as §1
^@ As measured in mice. Defined as the dose which produced the defici
in 50% of animals tested.

Row | Structure (SMILES) | pIC50 [1] | ED50 Inhibition of NMDA-Induced Lethality (NMDA [2]) [mg/kg] | Percent of animals which survived at the dose indicated (NMDA [2]; 5 mg/kg) [%] | Efficacy Ratio (ED50/TD50) (NMDA [2]) | other results
1 | CC12CNC(Cc3ccc(Br)cc31)c1ccccc12 (single isomer, unassigned; (+)) [Example 6, (+)-10,11-Dihydro-3-bromo-5-methyl-10,5-(iminomethano)-5H -dibenzo[a,d]cycloheptene] | 7.05 | 2.2 | – | – | –
2 | CC12CNC(Cc3ccc(Cl)cc31)c1ccccc12 (stereo not shown) [Example 3, 10,11-Dihydro-3-chloro-5-methyl-10,5-(iminomethano)-5H-dibenzo[a,d]cycloheptene] | – | – | 90 | – | –
3 | CC12CNC(Cc3ccc(Br)cc31)c1ccccc12 (single isomer, unassigned; (-)) [Example 5, (-)-10,11-Dihydro-3-bromo-5-methyl-10,5-(iminomethano)-5H -dibenzo[a,d]cycloheptene] | 6.00 | – | 40 | – | –
4 | C[C@]12N[C@H](Cc3ccccc31)c1ccccc12 [MK-801] | 8.59 | 0.19 | – | 0.9 | Antagonism of NMDA-induced lethality (background statement) (NMDA [3]): antagonizes NMDA-induced lethality; Protection against cell death in cerebral ischemia models (cerebral ischemia): protects against cell death in cerebral ischemia models; Competition for the high-affinity PCP binding site [4]: competes for the high-affinity PCP binding site; Drug discrimination: generalization for PCP [5]: generalizes for PCP
5 | CC12CNC(Cc3ccc(F)cc31)c1ccccc12 (stereo not shown) [Example 4, 10,11-Dihydro-3-fluoro-5-methyl-10,5-(iminomethano)-5H -dibenzo[a,d]cycloheptene] | – | – | 90 | – | –
6 | CN1CC[C@@]23CCCC[C@@H]2[C@@H]1Cc1ccc(O)cc13 [Dextrorphan, dextrorphan] | – | 13 | – | – | –
7 | COc1ccc2c(c1)[C@]13CCCC[C@@H]1[C@H](C2)N(C)CC3 [Dextromethorphan] | 6.13 | 21 | – | 2.1 | Potency in antagonizing NMDA-induced lethality vs PCP and MK-801 (NMDA [2]; in words): not as potent as PCP and MK-801; Metabolism in man [6]: metabolized to dextrorphan in man; Antagonism of NMDA-induced responses (NMDA-induced responses): noncompetitively antagonizes NMDA-induced responses
8 | c1ccc(C2(N3CCCCC3)CCCCC2)cc1 [PCP, phencyclidine] | 7.55 | 1.9 | – | – | Antagonism of NMDA-induced lethality (background statement) (NMDA [3]): antagonizes NMDA-induced lethality; Protection against cell death in cerebral ischemia models (cerebral ischemia): protects against cell death in cerebral ischemia models; Antagonism of NMDA-induced responses (NMDA-induced responses): noncompetitively antagonize NMDA-induced responses
9 | CC12CNC(Cc3ccccc31)c1ccc(Br)cc12 (stereo not shown) [Example 2, 10,11-Dihydro-7-bromo-5-methyl-10,5-(iminomethano)-5H-dibenzo[a,d]cycloheptene] | 6.96 | – | – | – | Percent of animals which survived at the dose indicated (NMDA [2]; 20 mg/kg): 60%
10 | CC12CNC(Cc3ccc(Br)cc31)c1ccccc12 (stereo not shown) [Example 1, 10.11-Dihydro-3-bromo-5-methyl-10,5-(iminomethano)-5H -dibenzo[a,d]cycloheptene] | 6.72 | 4.6 | – | 3.2 | TD50 [7]: 14.7 mg/kg
